Reference: patent publication US6051206A, “Radiolabeled somatostatin-derived peptides for imaging and therapeutic uses” (Diatide, Inc, priority 1996, dated 2000)
Where two headings read alike, the source gives them in different places. Bridge positions count the residues as written; N and C are the ends. Square brackets hold non-standard residues; d marks the D form. Peptide text beside a SMILES is read from it. * marks the point of attachment. X10 = NCCCC[C@H](NC(=O)[C@@H](N)CCCCNC(=O)C*)C(=O)N[C@@H](CS)C(N)=O; X2 = N=C(N)NCCC[C@H](NC(=O)[C@H](CS)NC(=O)CNC(=O)CNC(=O)C*)C(N)=O; X1 = NCCCC[C@H](NC(=O)[C@H](CS)NC(=O)CNC(=O)CNC(=O)C*)C(N)=O; NMeF = CN[C@@H](Cc1ccccc1)C(=O)O; hCys = N[C@@H](CCS)C(=O)O; Acm = CC(=O)NC*

Tests used:
SSTR-expressing tumors = assay: Clinical trial: scintigraphic imaging of human patients bearing SSTR-expressing tumors with Tc-99m labeled P587; format: in vivo; settings: i.v., within 30 minutes of injection
From the text: In a clinical trial, scintigraphic imaging of human patients bearing SSTR-expressing tumors was achieved using the Tc-99m labeled P587 reagent.
A total of 10 patients, four females and six males ranging in age from 27 to 69 years, had been previously diagnosed with growth hormone-secreting pituitary adenoma (4 patients), melanoma (1 subject), medullary thyroid cancer (1 subject), small cell lung carcinoma (SCLC; 1 patient), non-Hodgkin's lymphoma (1 patient) or gastric carcinoid (1 patient). Each of these patients were administered Tc-99m labeled P587 at a dose of 10-22 mCi per 0.2-0.5 mg by intravenous injection. Scintigraphic imaging was them performed as described herein on each patient for 4 hours post-injection.
Gamma camera imaging is started simultaneously with injection. Anterior images were acquired as a dynamic study (10 sec image acquisitions) over the first 10 min, and then as static images at 1, 2, 3 and 4 h post-injection. Anterior images were acquired for 500,000 counts or 20 min (whichever is shorter), at approximately 10-20 min, and at approximately 1, 2, 3 and 4 h post-injection.

[1] = system: Somatostatin Receptor (SSTR)-expressing CA20948 rat pancreatic tumors; assay: Localization and in vivo biodistribution/imaging of Tc-99m labeled peptides in CA20948 tumor-bearing Lewis rats; settings: 90-minute biodistribution; for T/B (tumor/blood ratio) / T/M / % ID/g Tumor: 99mTc-labeled peptide, i.v.; for % ID/g Tumor: CA20948 tumor-bearing Lewis rats
Description: (§1) CA20948 rat pancreatic tumor cells, thawed from frozen harvested tumor brei, were implanted intramuscularly in a suspension of 0.05 to 0.1 mL/animal, into the right hind thigh of 6 week old Lewis rats. The tumors were allowed to grow to approximately 0.5 to 2 g, harvested, and tumor brei was used to implant a second, naive set of Lewis rats. Passaging in this fashion was repeated to generate successive generations of tumor-bearing animals. The tumor-bearing animals used for the in vivo studies were usually from the third to fifth passage and carried 0.2 to 2 g tumors.
(§2) For studies of the specificity of radiotracer localization in the tumors, selected animals were given an subcutaneous SSTR-blocking dose (4 mg/kg) of octreotide 30 minutes prior to injection of the radiotracer.
(§3) Third- to fifth-passage CA20948 tumor-bearing Lewis rats were restrained and injected intravenously via the dorsal tail vein with a dose of 0.15-0.20 mCi ^99m Tc-labeled peptide corresponding to 3 to 8 μg peptide in 0.2 to 0.4 mL.
(§4) At selected times, the animals were sacrificed by cervical dislocation and selected necropsy was performed. Harvested tissue samples were weighed and counted along with an aliquot of the injected dose in a gamma well-counter.

somatostatin receptor = molecular target: T1, somatostatin receptor (Rattus norvegicus, UniProt P30680); assay: Inhibition of binding of {125I-Tyr11}somatostatin-14 to AR42J rat pancreatic tumor cell membranes; settings: uncomplexed peptide, {125I-Tyr11}somatostatin-14 0.5 nM
T1 construct: endogenous in cells; host or cells: AR42J rat pancreatic tumor cell line (membrane preparation)
Description: The rat pancreatic tumor cell line AR42J which expresses the somatostatin receptor was cultured in Dulbecco's minimal essential media (DMEM) supplemented with 10% fetal bovine serum (FBS) and 8 mM glutamine in a humdified 5% CO2 atmosphere at 37° C. in T-flasks. Harvested cells were homogenized in cold 50 mM Tris-HCl buffer (pH 7.4) and the homogenate then centrifuged at 39,000 g for 10 min at 4° C. Pellets were washed once with buffer and then resuspended in an ice-cold solution of 10 mM Tris-HCl (pH 7.4). Equal aliquots of this cell membrane preparation were incubated with {^125 I-Tyr^11 }somatostatin-14 (at a final concentration of 0.5 nM and 750,000 cpm/mL, at a specific activity of 2000 Ci/mmol, Amersham, Arlington Heights, Ill.) and peptide or peptide-rheniumcomplex at a final concentration of from 10^-11 M to 10^-6 M in a solution of 50 mM HEPES (pH 7.4) containing 1 % bovine serum albumin (BSA), 5 mM MgCl2, Trasylol (200,000 International Units), bacitracin (0.02 mg/mL) and phenylmethylsulfonylfluoride (0.02 mg/mL) for 25min at 30° C. Using a filtration manifold, this mixture was filtered through a polyethyleneimine-washed GC/F filter (Whatman, Maidstone, England), and the residue remaining on the filter washed thrice with 5 mL cold HEPES buffer. The filter and a sample of the filter washings were then counted in a gamma counter. To assess non-specific binding, the assay was performed in the presence of unlabeled somatostatin-14 at 200 nM. Data analysis including Hill plots of the data provided inhibition constants (see Bylund & Yamamura, "Methods of receptor binding", in Methods in Neurotransmitter Receptor Analysis, Yamamura et al., eds., Raven Press: New York, 1990).

[2] = system: Somatostatin Receptor (SSTR)-expressing CA20948 rat pancreatic tumors; settings: in vivo, iv
Description: as §1, §2, §3, §4

T1 sequence (P30680 whole entry): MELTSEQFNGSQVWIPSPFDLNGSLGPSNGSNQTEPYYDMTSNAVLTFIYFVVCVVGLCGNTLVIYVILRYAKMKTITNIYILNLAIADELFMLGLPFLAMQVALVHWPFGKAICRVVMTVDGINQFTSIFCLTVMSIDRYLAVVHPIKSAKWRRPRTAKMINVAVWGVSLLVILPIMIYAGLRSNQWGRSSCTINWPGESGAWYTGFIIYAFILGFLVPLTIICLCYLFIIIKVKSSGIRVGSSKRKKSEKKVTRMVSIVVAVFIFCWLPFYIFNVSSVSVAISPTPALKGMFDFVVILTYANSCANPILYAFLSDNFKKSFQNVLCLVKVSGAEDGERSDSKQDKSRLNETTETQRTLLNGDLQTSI

CC(C)[C@@H]1NC(=O)[C@H](CCCCN)NC(=O)[C@@H](Cc2c[nH]c3ccccc23)NC(=O)[C@H](Cc2ccc(O)cc2)NC(=O)[C@H](Cc2ccccc2)N(C)C(=O)[C@H](CCSCC(=O)NCC(=O)NCC(=O)N[C@@H](CS)C(=O)N[C@@H](CCCCN)C(N)=O)NC1=O (99mTc complex, metal not drawn) [Peptide P587, cyclo(N-methyl)FYWD KV.Hcy.(CH2 CO.GGCK.amide)] (cyclo([NMeF]Y[dW]KV[hCys](X1)))
injected dose remaining in the circulation (SSTR-expressing tumors): less than 10% | tumor uptake and tumor/blood ratios (in words) [1]: very high | T/B (tumor/blood ratio) [1]: 6.0 | T/M [1]: 33 | % ID/g Tumor [1]: 3.4 % ID/g

CC(C)[C@@H]1NC(=O)[C@H](CCCCN)NC(=O)[C@@H](Cc2c[nH]c3ccccc23)NC(=O)[C@H](Cc2ccc(O)cc2)NC(=O)[C@H](Cc2ccccc2)N(C)C(=O)[C@H](CCSCC(=O)NCC(=O)NCC(=O)N[C@@H](CS)C(=O)N[C@@H](CCCNC(=N)N)C(N)=O)NC1=O (99mTc complex, metal not drawn) [Peptide P617, cyclo(N-methyl)FYWD KV.Hcy.(CH2 CO.GGCR.amide)] (cyclo([NMeF]Y[dW]KV[hCys](X2)))
tumor uptake and tumor/blood ratios (in words) [1]: very high | T/B (tumor/blood ratio) [1]: 9.4 | T/M [1]: 36 | % ID/g Tumor [1]: 6.7 % ID/g

CC(=O)NCSC[C@H](NC(=O)CNC(=O)[C@H](CSCNC(C)=O)NC(=O)[C@@H]1CSCC(=O)N[C@@H](Cc2ccccc2)C(=O)N[C@@H](Cc2ccccc2)C(=O)N[C@H](Cc2c[nH]c3ccccc23)C(=O)N[C@@H](CCCCN)C(=O)N[C@@H]([C@@H](C)O)C(=O)N[C@@H](Cc2ccccc2)C(=O)N1)C(N)=O [CH2 CO.FFWD KTFCCAcm GCAcm.amide] ({CH2CO}-FF[dW]KTFCC(Acm)GC(Acm)-NH2; thioether N-7)
Ki (somatostatin receptor): 7.5 nM

C[C@@H](O)[C@@H]1NC(=O)[C@H](CCCCN)NC(=O)[C@@H](Cc2c[nH]c3ccccc23)NC(=O)[C@H](Cc2ccccc2)NC(=O)[C@H](Cc2ccccc2)NC(=O)CSC[C@@H](C(=O)NCC(=O)NCC(=O)N[C@@H](CS)C(N)=O)NC(=O)[C@H](Cc2ccccc2)NC1=O [CH2 CO.FFWD KTFCGGC.amide] ({CH2CO}-FF[dW]KTFCGGC-NH2; thioether N-7)
Ki (somatostatin receptor): 9.4 nM

CC(C)[C@@H]1NC(=O)[C@H](CCCCN)NC(=O)[C@@H](Cc2c[nH]c3ccccc23)NC(=O)[C@H](Cc2ccc(O)cc2)NC(=O)[C@H](Cc2ccccc2)N(C)C(=O)[C@H](CCSCC(=O)NCCCC[C@H](N)C(=O)N[C@@H](CCCCN)C(=O)N[C@@H](CS)C(N)=O)NC1=O [cyclo.(N-Me)FYWD KV.Hcy(CH2 CO.(ε-K)KC.amide)] (cyclo([NMeF]Y[dW]KV[hCys](X10)))
Ki (somatostatin receptor): 2.2 nM

KKKK.NalD.Cpa.YWD KTFT(ε-K)GCDDDD.amide [Peptide P550]
T/B (tumor/blood ratio) [2]: 0.91 | T/M [2]: 7.4

cyclo.(N--CH3)FYWD KV.Hcy(CH2 CO.(β-Dap)KCK.amide) [Peptide P829]
T/B (tumor/blood ratio) [2]: 13 | T/M [2]: 49

cyclo.(N--CH3)FYWD KV.Hcy(CH2 CO.(β-Dap)KCR.amide) [Peptide P832]
T/B (tumor/blood ratio) [2]: 13 | T/M [2]: 37

cyclo.(N-Me)FYWD KV.Hcy(CH2 CO.(ε-K)KC.amide) [Peptide P625]
T/B (tumor/blood ratio) [2]: 0.85 | T/M [2]: 4.6
